# Experimental data reported in publication PMC12140300, “Development of Carbon‐11 Labeled Pyrimidine Derivatives as Novel Positron Emission Tomography (PET) Agents Enabling Brain Sigma‐1 Receptor Imaging” (Advanced Science, 2025).
# Columns and labels:
# Test in all cases: PDSP radioligand assay
# Assay type in all cases: binding
# 5-HT2C = molecular target: T1, 5-HT2C (Homo sapiens, UniProt P28335)
# T1 sequence (P28335 33-458): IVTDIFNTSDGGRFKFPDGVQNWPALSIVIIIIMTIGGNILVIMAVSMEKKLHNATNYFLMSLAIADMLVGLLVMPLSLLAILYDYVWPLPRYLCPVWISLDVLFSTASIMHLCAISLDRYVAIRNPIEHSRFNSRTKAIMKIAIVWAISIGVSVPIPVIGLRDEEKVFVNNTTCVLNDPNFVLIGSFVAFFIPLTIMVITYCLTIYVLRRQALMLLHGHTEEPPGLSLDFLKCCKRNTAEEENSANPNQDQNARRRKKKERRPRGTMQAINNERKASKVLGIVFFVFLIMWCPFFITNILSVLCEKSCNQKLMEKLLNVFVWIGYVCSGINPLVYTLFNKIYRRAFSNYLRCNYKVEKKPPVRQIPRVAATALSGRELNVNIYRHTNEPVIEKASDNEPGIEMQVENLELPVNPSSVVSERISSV
# Procedure: (§1) The ex vivo binding affinities of σRs of CNY‐01 and CNY‐02 were measured using a competitive radioligand binding assay.^[ [35] ^]
# (§2) Details of individual binding assay conditions and protocols are available at the NIMH PDSP website: https://pdsp.unc.edu/pdspweb/.
# 5-HT5A = molecular target: T2, 5-HT5A (Homo sapiens, UniProt P47898)
# T2 construct: purchased NIMH Psychoactive Drug Screening Program (PDSP)
# Procedure: as §1, §2
# D3 = D3 (Homo sapiens, UniProt P35462)
# Procedure: as §1, §2
# Alpha1A = molecular target: T3, Alpha1A (Homo sapiens, UniProt P35348)
# T3 construct: purchased NIMH Psychoactive Drug Screening Program (PDSP)
# Procedure: as §1, §2
# 5-HT7A = 5-HT7A (Homo sapiens, UniProt P34969)
# Procedure: as §1, §2
# DOR = molecular target: T4, DOR (Homo sapiens, UniProt P41143)
# T4 construct: purchased NIMH Psychoactive Drug Screening Program (PDSP)
# Procedure: as §1, §2
# 5-HT3 = molecular target: T5, 5-HT3 (Homo sapiens, UniProt P46098)
# T5 construct: purchased NIMH Psychoactive Drug Screening Program (PDSP)
# Procedure: as §1, §2
# Alpha2A = molecular target: T6, Alpha2A (Homo sapiens, UniProt P08913)
# T6 sequence (P08913 1-465): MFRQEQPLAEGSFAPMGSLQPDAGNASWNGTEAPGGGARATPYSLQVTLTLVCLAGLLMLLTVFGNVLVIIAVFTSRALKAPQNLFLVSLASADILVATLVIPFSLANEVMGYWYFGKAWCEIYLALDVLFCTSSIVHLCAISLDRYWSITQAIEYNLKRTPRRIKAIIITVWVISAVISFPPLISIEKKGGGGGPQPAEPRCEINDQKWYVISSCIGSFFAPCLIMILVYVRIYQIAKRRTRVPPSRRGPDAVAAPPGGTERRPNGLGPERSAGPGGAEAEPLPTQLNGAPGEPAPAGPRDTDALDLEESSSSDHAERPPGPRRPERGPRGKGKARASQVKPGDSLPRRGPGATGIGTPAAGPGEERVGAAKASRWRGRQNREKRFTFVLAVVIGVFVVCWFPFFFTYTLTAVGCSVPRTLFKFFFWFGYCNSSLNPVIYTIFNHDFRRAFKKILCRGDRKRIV
# Procedure: as §1, §2
# 5-HT1D = 5-HT1D (Homo sapiens, UniProt P28221)
# Procedure: as §1, §2
# 5-HT1A = molecular target: T7, 5-HT1A (Homo sapiens, UniProt P08908)
# T7 construct: purchased NIMH Psychoactive Drug Screening Program (PDSP)
# Procedure: as §1, §2
# Alpha2B = molecular target: T8, Alpha2B (Homo sapiens, UniProt P18089)
# T8 sequence (P18089 1-450): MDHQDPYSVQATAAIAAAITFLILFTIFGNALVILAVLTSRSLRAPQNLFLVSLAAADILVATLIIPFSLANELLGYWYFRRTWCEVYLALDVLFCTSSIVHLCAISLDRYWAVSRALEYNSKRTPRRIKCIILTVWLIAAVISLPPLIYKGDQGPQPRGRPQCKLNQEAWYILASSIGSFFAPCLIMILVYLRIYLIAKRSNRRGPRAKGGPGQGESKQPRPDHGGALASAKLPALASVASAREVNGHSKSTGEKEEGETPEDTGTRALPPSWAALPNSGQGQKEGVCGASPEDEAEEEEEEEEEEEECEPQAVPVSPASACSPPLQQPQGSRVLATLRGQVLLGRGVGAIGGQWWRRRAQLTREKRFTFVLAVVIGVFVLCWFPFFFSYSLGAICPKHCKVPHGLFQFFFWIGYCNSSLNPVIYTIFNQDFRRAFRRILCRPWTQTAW
# Procedure: as §1, §2
# D1 = D1 (Homo sapiens, UniProt P21728)
# Procedure: as §1, §2
# DAT = molecular target: T9, DAT (Homo sapiens, UniProt Q01959)
# T9 construct: purchased NIMH Psychoactive Drug Screening Program (PDSP)
# Procedure: as §1, §2
# GABAA = conditions: 10 µM
# Procedure: as §1, §2
# 5-HT2B = 5-HT2B (Homo sapiens, UniProt P41595)
# Procedure: as §1, §2
# 5-HT1B = 5-HT1B (Homo sapiens, UniProt P28222)
# Procedure: as §1, §2
# BZP Rat Brain Site = conditions: 10 µM
# Procedure: as §1, §2
# H4 = molecular target: T10, H4 (Homo sapiens, UniProt Q9H3N8)
# T10 construct: purchased NIMH Psychoactive Drug Screening Program (PDSP)
# Procedure: as §1, §2
# Beta1 = molecular target: T11, Beta1 (Homo sapiens, UniProt P08588)
# T11 construct: purchased NIMH Psychoactive Drug Screening Program (PDSP)
# Procedure: as §1, §2
# D2 = molecular target: T12, D2 (Homo sapiens, UniProt P14416)
# T12 construct: purchased NIMH Psychoactive Drug Screening Program (PDSP)
# Procedure: as §1, §2
# Chain of 5-HT2B (P41595 whole entry, species assumed): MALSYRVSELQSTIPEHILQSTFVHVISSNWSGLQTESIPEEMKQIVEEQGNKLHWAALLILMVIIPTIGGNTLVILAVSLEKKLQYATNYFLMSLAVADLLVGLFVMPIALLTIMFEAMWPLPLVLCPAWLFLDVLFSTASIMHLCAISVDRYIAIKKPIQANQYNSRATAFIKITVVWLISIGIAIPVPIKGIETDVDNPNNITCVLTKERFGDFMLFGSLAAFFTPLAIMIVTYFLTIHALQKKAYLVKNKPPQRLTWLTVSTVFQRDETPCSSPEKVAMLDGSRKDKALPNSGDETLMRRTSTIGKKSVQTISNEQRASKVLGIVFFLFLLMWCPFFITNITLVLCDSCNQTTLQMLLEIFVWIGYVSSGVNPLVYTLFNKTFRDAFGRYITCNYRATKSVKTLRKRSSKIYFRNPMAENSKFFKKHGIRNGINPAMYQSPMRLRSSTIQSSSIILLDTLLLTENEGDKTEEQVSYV
# Chain of 5-HT7A (P34969 1-445 isoform P34969-2): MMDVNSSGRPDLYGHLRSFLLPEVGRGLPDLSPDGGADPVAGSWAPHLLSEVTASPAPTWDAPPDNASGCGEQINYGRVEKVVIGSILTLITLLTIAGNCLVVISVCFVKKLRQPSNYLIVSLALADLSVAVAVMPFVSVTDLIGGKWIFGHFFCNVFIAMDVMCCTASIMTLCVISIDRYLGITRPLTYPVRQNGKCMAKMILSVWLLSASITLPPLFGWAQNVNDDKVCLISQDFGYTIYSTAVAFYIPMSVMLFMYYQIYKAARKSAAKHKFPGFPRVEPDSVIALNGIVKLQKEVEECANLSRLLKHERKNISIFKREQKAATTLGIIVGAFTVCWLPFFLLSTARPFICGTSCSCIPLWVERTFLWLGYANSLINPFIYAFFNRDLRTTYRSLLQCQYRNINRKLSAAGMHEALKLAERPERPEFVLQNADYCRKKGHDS
# Chain of 5-HT1D (P28221 whole entry, species assumed): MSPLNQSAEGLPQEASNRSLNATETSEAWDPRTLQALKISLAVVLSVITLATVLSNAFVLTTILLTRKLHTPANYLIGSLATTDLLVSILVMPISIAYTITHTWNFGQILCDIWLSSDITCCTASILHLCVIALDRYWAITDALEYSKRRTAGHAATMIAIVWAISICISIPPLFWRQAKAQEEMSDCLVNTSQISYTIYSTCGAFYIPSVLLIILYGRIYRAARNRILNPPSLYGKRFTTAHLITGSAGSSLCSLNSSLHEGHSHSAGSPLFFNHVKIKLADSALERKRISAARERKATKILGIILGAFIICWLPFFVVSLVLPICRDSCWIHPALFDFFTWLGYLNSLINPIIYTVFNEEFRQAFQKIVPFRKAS
# Chain of D1 (P21728 whole entry): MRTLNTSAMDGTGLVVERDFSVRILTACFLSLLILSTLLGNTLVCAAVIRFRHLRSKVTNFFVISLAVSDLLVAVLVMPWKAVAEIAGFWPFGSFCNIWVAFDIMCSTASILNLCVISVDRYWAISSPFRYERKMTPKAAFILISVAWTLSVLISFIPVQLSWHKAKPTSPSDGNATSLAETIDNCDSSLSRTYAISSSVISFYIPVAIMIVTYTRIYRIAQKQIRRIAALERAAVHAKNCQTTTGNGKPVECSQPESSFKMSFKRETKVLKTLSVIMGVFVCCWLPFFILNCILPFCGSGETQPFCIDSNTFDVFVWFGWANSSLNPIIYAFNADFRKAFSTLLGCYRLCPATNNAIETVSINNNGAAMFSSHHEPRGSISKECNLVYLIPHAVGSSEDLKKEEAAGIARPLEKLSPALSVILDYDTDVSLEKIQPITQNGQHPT
# Chain of D3 (P35462 whole entry): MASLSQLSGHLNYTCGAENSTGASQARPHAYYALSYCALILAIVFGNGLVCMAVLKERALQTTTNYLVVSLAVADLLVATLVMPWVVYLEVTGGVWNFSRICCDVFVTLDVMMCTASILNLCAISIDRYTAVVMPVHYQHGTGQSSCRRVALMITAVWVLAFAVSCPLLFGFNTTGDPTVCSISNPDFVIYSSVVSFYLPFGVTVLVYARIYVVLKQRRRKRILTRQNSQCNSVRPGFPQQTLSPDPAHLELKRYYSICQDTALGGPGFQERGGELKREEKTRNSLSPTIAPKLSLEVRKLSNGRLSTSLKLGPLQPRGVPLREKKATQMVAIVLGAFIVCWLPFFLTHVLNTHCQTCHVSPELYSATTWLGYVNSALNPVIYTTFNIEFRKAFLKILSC
# Chain of 5-HT1B (P28222 whole entry, species assumed): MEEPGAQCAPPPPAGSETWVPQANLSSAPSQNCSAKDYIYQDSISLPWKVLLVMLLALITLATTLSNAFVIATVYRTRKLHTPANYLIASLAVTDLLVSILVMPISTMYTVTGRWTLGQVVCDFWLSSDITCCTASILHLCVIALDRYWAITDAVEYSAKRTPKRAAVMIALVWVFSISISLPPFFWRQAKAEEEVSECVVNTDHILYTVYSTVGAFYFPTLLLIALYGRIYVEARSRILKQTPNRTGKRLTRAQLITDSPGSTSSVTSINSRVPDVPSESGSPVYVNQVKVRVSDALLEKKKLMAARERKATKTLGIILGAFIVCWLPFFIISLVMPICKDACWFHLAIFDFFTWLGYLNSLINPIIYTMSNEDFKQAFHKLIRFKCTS
# T4 sequence (P41143 whole entry): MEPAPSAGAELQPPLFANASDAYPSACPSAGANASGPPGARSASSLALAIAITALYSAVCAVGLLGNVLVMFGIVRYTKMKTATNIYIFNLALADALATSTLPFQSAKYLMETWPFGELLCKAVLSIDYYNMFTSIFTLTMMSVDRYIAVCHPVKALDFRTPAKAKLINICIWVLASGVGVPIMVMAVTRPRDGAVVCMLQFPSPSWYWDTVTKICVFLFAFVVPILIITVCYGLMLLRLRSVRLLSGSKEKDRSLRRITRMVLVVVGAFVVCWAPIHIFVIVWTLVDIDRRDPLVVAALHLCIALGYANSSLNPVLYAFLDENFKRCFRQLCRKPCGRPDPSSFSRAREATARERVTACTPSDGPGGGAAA
# T10 sequence (Q9H3N8 whole entry): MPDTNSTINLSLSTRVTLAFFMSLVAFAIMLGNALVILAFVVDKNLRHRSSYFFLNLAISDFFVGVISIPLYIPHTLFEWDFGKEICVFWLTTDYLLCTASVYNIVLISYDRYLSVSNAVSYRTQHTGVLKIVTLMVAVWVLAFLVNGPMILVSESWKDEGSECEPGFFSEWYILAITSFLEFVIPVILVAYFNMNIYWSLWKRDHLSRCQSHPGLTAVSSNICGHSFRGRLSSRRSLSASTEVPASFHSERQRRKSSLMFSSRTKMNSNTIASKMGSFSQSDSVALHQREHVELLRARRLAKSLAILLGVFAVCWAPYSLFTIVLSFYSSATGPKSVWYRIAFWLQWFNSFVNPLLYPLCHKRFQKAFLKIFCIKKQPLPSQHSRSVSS
# T9 sequence (Q01959 whole entry): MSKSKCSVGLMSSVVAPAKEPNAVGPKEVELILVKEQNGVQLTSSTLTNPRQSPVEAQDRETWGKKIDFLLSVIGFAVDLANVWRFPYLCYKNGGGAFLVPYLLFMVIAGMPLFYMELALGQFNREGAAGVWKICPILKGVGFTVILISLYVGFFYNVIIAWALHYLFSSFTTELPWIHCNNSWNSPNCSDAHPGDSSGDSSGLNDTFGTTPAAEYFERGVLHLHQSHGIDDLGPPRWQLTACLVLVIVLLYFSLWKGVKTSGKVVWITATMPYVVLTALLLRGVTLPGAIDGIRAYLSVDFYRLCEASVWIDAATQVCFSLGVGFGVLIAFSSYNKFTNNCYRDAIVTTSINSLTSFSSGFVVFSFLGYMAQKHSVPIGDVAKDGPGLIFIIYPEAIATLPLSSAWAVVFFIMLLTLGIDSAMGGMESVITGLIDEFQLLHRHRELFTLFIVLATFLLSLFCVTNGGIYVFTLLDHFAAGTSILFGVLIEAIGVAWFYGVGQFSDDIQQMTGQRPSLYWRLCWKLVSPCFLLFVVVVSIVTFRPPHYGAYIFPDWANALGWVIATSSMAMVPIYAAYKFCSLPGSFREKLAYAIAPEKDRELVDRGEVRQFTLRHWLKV
# T3 sequence (P35348 whole entry): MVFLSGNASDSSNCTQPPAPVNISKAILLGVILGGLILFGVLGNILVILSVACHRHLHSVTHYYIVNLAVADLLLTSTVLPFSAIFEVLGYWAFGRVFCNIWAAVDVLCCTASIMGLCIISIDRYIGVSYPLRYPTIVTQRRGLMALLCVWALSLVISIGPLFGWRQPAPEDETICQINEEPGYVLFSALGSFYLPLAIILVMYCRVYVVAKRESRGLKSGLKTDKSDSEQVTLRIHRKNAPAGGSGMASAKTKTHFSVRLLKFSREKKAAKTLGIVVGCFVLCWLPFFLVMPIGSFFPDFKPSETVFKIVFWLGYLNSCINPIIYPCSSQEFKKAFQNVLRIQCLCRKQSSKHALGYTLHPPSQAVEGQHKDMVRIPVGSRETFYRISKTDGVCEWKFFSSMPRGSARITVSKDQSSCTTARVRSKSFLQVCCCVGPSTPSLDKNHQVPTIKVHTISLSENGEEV
# T2 sequence (P47898 whole entry): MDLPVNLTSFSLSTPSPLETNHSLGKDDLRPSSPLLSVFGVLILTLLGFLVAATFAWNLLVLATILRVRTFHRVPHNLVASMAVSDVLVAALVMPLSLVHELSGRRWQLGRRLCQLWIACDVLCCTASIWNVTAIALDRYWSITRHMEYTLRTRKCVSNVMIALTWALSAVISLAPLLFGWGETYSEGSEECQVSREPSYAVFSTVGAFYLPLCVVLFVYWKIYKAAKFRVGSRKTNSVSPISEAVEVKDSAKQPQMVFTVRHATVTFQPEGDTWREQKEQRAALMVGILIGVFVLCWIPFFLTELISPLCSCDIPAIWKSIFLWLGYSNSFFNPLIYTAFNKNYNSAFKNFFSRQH
SMILES,inhibition at 10 µM (5-HT2C) [%],inhibition at 10 µM (5-HT5A) [%],Ki (D3) [nM],inhibition at 10 µM (D3) [%],inhibition at 10 µM (Alpha1A) [%],inhibition at 10 µM (5-HT7A) [%],inhibition at 10 µM (DOR) [%],inhibition at 10 µM (5-HT3) [%],inhibition at 10 µM (Alpha2A) [%],Ki (5-HT1D) [nM],inhibition at 10 µM (5-HT1D) [%],inhibition at 10 µM (5-HT1A) [%],Ki (Alpha2B) [nM],inhibition at 10 µM (Alpha2B) [%],inhibition at 10 µM (D1) [%],inhibition at 10 µM (DAT) [%],Mean % (inhibition) (GABAA) [%],Ki (5-HT2B) [nM],inhibition at 10 µM (5-HT2B) [%],Ki (5-HT1B) [nM],other results
"COc1ccc(-c2nc(C)c(Cl)c(OCCCN3CCCCC3)n2)cc1 [CNY-01, 5‐chloro‐2‐(4‐methoxyphenyl)‐4‐methyl‐6‐(3‐(piperidin‐1‐yl)propoxy)pyrimidine]",-5.06,31.9,521,65.8,21.6,59.3,3.77,7.61,55.9,2670,91.9,17.5,1350,93.1,19,20.9,25.49,914,77.1,3200,Ki (5-HT7A): 4700 nM; Ki (Alpha2A): 2370 nM; inhibition at 10 µM (5-HT1B): 79.8%; Mean % (inhibition) (BZP Rat Brain Site): 10.99%; inhibition at 10 µM (H4): 24%; inhibition at 10 µM (Beta1): 7.15%; inhibition at 10 µM (D2): 4.43%
"Cc1nc(-c2ccc(Cl)cc2)nc(OCCCN2CCN(C)CC2)c1Cl [CNY-02, 5‐chloro‐2‐(4‐chlorophenyl)‐4‐methyl‐6‐(3‐(4‐methylpiperazin‐1‐yl)propoxy)pyrimidine]",89.4,29.4,4910,66.1,-1.08,-4.02,1.3,-1.23,47.6,7280,54.5,-2.49,3390,68.4,52.1,33.8,32.06,530,90.4,3740,Ki (5-HT2C): 268 nM; Ki (D1): 2340 nM; inhibition at 10 µM (5-HT1B): 60.3%; Mean % (inhibition) (BZP Rat Brain Site): 23.26%; inhibition at 10 µM (H4): 23.3%; inhibition at 10 µM (Beta1): 3.55%; inhibition at 10 µM (D2): -0.57%
